PMC10112504, “Novel 4-thiophenyl-pyrazole, pyridine, and pyrimidine derivatives as potential antitumor candidates targeting both EGFR and VEGFR-2; design, synthesis, biological evaluations, and in silico studies” (RSC Advances, 2023)

Tests used:
[1] = test system: HepG-2; assay: Apoptosis analysis, FITC Annexin-V/PI kit; assay type: cell-based; conditions: HepG-2 treated with 10b at 13.81 μM
From the text: This was accompanied by significant elevations in the percentage of the AnxV-FITC apoptotic cells in both the early (from 0.36 to 14.52%) and late (from 0.21 to 24.45%) apoptotic phases, compared to the control (Fig. 5 and 6). Accordingly, we can confirm the exact mechanism of the anticancer activity of 10b to be due to the programmed apoptosis pathway.
This was done using the FITC Annexin-V/PI kit.[49]

[2] = test system: HepG2; assay: Cell cycle analysis by flow cytometry; assay type: cell-based; conditions: HepG2 treated with 10b at 13.81 μM; control 36.19%
[3] = molecular target: EGFR (Homo sapiens, UniProt P00533); assay: EGFR inhibitory activity, homogeneous luminescence release assay; assay type: biochemical; conditions: reference erlotinib; read-out: EGFR inhibition IC50
Chain of EGFR (P00533 25-1210): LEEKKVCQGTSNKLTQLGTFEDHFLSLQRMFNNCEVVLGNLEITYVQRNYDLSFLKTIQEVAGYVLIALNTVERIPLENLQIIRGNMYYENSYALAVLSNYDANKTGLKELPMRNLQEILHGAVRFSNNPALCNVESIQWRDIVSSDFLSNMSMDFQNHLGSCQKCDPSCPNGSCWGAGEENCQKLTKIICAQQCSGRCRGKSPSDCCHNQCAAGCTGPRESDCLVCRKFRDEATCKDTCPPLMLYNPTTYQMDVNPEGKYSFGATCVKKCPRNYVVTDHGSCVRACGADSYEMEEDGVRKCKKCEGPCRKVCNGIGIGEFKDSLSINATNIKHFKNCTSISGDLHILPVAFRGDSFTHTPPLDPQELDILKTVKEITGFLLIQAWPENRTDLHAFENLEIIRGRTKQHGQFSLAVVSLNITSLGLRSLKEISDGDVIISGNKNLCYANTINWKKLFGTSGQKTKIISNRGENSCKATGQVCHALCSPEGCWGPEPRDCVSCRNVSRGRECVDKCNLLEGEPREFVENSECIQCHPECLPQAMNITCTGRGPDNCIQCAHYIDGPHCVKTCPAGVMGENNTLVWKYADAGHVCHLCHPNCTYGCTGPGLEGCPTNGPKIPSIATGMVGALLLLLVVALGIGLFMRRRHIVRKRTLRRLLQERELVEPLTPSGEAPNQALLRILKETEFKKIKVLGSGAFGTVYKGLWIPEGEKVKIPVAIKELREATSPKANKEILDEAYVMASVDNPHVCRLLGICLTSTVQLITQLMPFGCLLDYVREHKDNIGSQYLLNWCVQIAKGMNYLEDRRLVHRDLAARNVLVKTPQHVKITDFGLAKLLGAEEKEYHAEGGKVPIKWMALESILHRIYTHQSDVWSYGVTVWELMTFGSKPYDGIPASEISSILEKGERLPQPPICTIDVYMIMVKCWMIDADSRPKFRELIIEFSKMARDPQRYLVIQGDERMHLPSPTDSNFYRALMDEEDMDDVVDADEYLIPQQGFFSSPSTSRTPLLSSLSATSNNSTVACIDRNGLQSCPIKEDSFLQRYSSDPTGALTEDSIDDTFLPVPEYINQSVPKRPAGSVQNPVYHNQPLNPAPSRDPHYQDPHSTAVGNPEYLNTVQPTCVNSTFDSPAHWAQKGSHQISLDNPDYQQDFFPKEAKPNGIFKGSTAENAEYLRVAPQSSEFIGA

[4] = molecular target: VEGFR-2 (Homo sapiens, UniProt P35968); assay: VEGFR-2 inhibitory activity, homogeneous luminescence release assay; assay type: biochemical; conditions: reference sorafenib; read-out: VEGFR-2 inhibition IC50
Chain of VEGFR-2 (P35968 20-1356): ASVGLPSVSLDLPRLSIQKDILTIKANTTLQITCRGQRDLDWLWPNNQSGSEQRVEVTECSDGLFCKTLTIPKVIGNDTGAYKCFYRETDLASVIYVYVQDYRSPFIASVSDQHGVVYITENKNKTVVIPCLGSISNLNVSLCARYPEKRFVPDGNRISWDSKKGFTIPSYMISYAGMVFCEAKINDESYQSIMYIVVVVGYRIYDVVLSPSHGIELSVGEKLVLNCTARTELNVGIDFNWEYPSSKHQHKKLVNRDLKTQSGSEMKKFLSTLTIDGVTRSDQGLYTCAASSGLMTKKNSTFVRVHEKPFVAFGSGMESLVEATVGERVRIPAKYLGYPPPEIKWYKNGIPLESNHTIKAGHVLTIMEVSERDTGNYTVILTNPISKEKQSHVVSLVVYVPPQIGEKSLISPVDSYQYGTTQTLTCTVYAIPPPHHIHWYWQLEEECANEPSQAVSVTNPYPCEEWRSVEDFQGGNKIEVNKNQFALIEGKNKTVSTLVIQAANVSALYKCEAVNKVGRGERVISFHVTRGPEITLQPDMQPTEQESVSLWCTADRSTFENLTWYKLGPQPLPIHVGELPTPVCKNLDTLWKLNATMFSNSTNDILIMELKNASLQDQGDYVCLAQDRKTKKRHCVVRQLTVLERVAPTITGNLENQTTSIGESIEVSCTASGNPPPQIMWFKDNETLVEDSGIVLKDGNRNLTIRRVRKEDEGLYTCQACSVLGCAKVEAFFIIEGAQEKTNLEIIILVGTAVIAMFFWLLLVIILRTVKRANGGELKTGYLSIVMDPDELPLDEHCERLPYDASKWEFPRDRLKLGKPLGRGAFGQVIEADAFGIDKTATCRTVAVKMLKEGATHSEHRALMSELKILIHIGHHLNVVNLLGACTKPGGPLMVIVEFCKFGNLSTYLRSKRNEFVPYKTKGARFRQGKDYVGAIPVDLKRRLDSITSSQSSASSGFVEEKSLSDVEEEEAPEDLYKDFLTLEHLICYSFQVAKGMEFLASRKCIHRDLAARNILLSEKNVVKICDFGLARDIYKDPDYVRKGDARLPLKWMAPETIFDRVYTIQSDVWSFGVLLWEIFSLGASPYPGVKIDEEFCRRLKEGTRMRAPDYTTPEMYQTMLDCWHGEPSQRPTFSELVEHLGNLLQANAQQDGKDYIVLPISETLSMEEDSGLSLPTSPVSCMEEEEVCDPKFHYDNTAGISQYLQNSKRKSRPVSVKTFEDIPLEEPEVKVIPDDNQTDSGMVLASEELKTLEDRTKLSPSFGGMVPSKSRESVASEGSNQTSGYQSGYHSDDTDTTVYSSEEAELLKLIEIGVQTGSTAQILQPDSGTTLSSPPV
From the text: […]. Briefly, these μM inhibitory concentrations recommend greatly the proposed rationale design for the investigated compounds to act as promising dual EGFR/VEGFR-2 inhibitors.

[5] = test system: HepG-2; assay: Anti-proliferative activity, SRB colorimetric assay; assay type: cell-based; conditions: for IC50: Homo sapiens, HepG2, HepG-2 cancer cell line, SRB assay, read-out: Cell lines (IC50 μM) HepG-2; for anti-proliferative activity against HepG-2, in words: authors' grading of Table 1 values, key not given
[6] = test system: A. flavus; assay: Antifungal activity, inhibition zone approach; assay type: cell-based, Aspergillus flavus; conditions: for A. flavus Diameter of inhibition zone (mm): Fungi; for antimicrobial activity with A. flavus, in words: authors' grading of Table 2 values, key not given; for A. flavus % Activity index: ketoconazole = 100
[7] = test system: B. subtilis; assay: Antibacterial activity, inhibition zone approach; assay type: cell-based, Bacillus subtilis; conditions: for B. subtilis Diameter of inhibition zone (mm): Gram-positive bacteria; for antimicrobial activity with B. subtilis, in words: authors' grading of Table 2 values, key not given; for B. subtilis % Activity index: gentamicin = 100
[8] = test system: E. coli; assay: Antibacterial activity, inhibition zone approach; assay type: cell-based, Escherichia coli; conditions: for E. coli Diameter of inhibition zone (mm): Gram-negative bacteria; for antimicrobial activity with E. coli, in words: authors' grading of Table 2 values, key not given; for E. coli % Activity index: gentamicin = 100
[9] = test system: MCF-7; assay: Anti-proliferative activity, SRB colorimetric assay; assay type: cell-based; conditions: for IC50: Homo sapiens, MCF7, MCF-7 cancer cell line, SRB assay, read-out: Cell lines (IC50 μM) MCF-7; for anti-proliferative activity against MCF-7, in words: authors' grading of Table 1 values, key not given
[10] = test system: C. albicans; assay: Antifungal activity, inhibition zone approach; assay type: cell-based, Candida albicans; conditions: for C. albicans Diameter of inhibition zone (mm): Fungi; for antimicrobial activity with C. albicans, in words: authors' grading of Table 2 values, key not given; for C. albicans % Activity index: ketoconazole = 100
[11] = test system: P. aeuroginosa; assay: Antibacterial activity, inhibition zone approach; assay type: cell-based, Pseudomonas aeuroginosa; conditions: for P. aeuroginosa Diameter of inhibition zone (mm): Gram-negative bacteria; for antimicrobial activity with P. aeuroginosa, in words: authors' grading of Table 2 values, key not given; for P. aeuroginosa % Activity index: gentamicin = 100
[12] = test system: S. aureus; assay: Antibacterial activity, inhibition zone approach; assay type: cell-based, Staphylococcus aureus; conditions: for S. aureus Diameter of inhibition zone (mm): Gram-positive bacteria; for antimicrobial activity with S. aureus, in words: authors' grading of Table 2 values, key not given; for S. aureus % Activity index: gentamicin = 100

NC(=S)n1nc(-c2ccc(Cl)c(Cl)c2)cc1-c1cccs1 [10b, 3-(3,4-dichlorophenyl)-5-(thiophen-2-yl)-1H-pyrazole-1-carbothioamide]
AnxV-FITC apoptotic cells, late apoptotic phase ([1]; control 0.21%): 24.45%
total apoptosis percentage ([1]; control 1.75): 44.26%
AnxV-FITC apoptotic cells, early apoptotic phase ([1]; control […]): 14.52%
fold change of S phase population compared to control [2]: 1.37 fold
IC50 [3]: 0.161 µM
IC50 [4]: 0.141 µM
IC50 [5]: 13.8 ± 1.1 µM
anti-proliferative activity against HepG-2, in words [5]: strong
A. flavus Diameter of inhibition zone (mm) [6]: 14 mm
antimicrobial activity with A. flavus, in words [6]: moderate
A. flavus % Activity index [6]: 53.8%
B. subtilis Diameter of inhibition zone (mm) [7]: 17 mm
antimicrobial activity with B. subtilis, in words [7]: very strong
B. subtilis % Activity index [7]: 77.3%
E. coli Diameter of inhibition zone (mm) [8]: 9 mm
antimicrobial activity with E. coli, in words [8]: moderate
E. coli % Activity index [8]: 42.8%
IC50 [9]: 23.2 ± 1.8 µM
anti-proliferative activity against MCF-7, in words [9]: moderate
C. albicans Diameter of inhibition zone (mm) [10]: 20 mm
antimicrobial activity with C. albicans, in words [10]: very strong
C. albicans % Activity index [10]: 71.4%
P. aeuroginosa Diameter of inhibition zone (mm) [11]: 13 mm
antimicrobial activity with P. aeuroginosa, in words [11]: very strong
P. aeuroginosa % Activity index [11]: 68.4%
S. aureus Diameter of inhibition zone (mm) [12]: 12 mm
antimicrobial activity with S. aureus, in words [12]: very strong
S. aureus % Activity index [12]: 66.7%

O=C(SC(=S)N1N=C(c2ccc(O)cc2)CC1c1cccs1)c1ccccc1 (centres unmarked) [18a, Benzoic 3-(4-hydroxyphenyl)-5-(thiophen-2-yl)-4,5-dihydro-1H-pyrazole-1-carbothioic thioanhydride]
melting point: 240 °C
IC50 [3]: 0.436 µM
IC50 [4]: 0.344 µM
IC50 [5]: 12.9 ± 1 µM
anti-proliferative activity against HepG-2, in words [5]: strong
A. flavus Diameter of inhibition zone (mm) [6]: 16 mm
antimicrobial activity with A. flavus, in words [6]: very strong
A. flavus % Activity index [6]: 61.5%
B. subtilis Diameter of inhibition zone (mm) [7]: 17 mm
antimicrobial activity with B. subtilis, in words [7]: very strong
B. subtilis % Activity index [7]: 77.3%
E. coli Diameter of inhibition zone (mm) [8]: 10 mm
antimicrobial activity with E. coli, in words [8]: moderate
E. coli % Activity index [8]: 47.6%
IC50 [9]: 6.92 ± 0.5 µM
anti-proliferative activity against MCF-7, in words [9]: very strong
C. albicans Diameter of inhibition zone (mm) [10]: 20 mm
antimicrobial activity with C. albicans, in words [10]: very strong
C. albicans % Activity index [10]: 71.4%
P. aeuroginosa Diameter of inhibition zone (mm) [11]: 15 mm
antimicrobial activity with P. aeuroginosa, in words [11]: very strong
P. aeuroginosa % Activity index [11]: 78.9%
S. aureus Diameter of inhibition zone (mm) [12]: 13 mm
antimicrobial activity with S. aureus, in words [12]: very strong
S. aureus % Activity index [12]: 72.2%
